Like-named read-outs stand apart in the source and are kept apart here.
Experiments:
[1] = tested on: panel of 144 protein kinases; experiment: SelectScreen panel of 144 protein kinases; type: biochemical; conditions: includes PKC isoforms, OSR1, SPAK, WNK
Experimental: Aliquots of HEK-293 cells expressing KCC2 were exposed to 30 μM SSA, heated from 37-55° C. The remaining level of soluble native KCC2 at each temperature was measured by immunoblotting and normalized to the level seen at 37° C. which was given a value of 1. […] This panel included protein kinase C isoforms, OSR1, SPAK (STK39) and with-no-lysine kinases (WNK), all of which phosphorylate KCC2 on multiple residues to indirectly modify its activity (Kahle et al., 2013, supra; Smalley et al., 2020, supra).

hippocampal neurons = experiment: Whole cell patch clamp with imposed Cl− load, hippocampal neurons; type: cell-based, Sprague Dawley; conditions: 1 h incubation, 32 mM Cl− load; controls −47.4±2.3
Experimental: Neuronal Cultures. Hippocampal neurons were prepared from Sprague Dawley E18 embryos and plated at 450,000 per dish and maintained at 37° C. in a humidified 5% CO2 incubator for 10-25 days before experimentation (Lee et al., Nat. Neurosci. 14, 736-743 (2011)).
Neuronal Patch clamp assays. Neuronal cell culture recordings were performed in bath saline at 34° C. For gramicidin perforated-patch experiments, pipettes contained (in mM): 140 KCl and 10 HEPES, pH 7.4 KOH. For whole-cell experiments, pipettes contained (in mM): 115 K-meth-SO^4, 30 KCl, 2 Mg-ATP, 4 Na-ATP, 0.4 Na-GTP, and 10 HEPES, pH 7.4 KOH. Bath saline contained the following (in mM): 140 NaCl, 2.5 KCl, 2.5 CaCl2, 2.5 MgCl2, 10 HEPES, and 11 glucose, pH 7.4 NaOH (Kontou et at, 2021, supra). All compound solutions were applied to cells using a three-barreled 700 μm pipe positioned just above the cell (Warner Instruments). […] All voltages from whole-cell experiments were corrected offline using a calculated liquid junction potential value (13.6 mV) in Clampex (Molecular Devices). For gramicidin perforated-patch experiments, intracellular Cl^− values were back-calculated using measured EGABA values and the Nernst equation: […]
5 min after break-in, an initial EGABA value was determined and the effects of a subsequent 5 min incubation with VU0463271 was assessed.

[2] = PK studies, brain and plasma levels by LC-MS/MS; type: in vivo, mice; conditions: for concentration at 30 min: 25 mg/kg IV bolus, within 30 minutes
Experimental: PK studies. […] Plasma and brain samples were rapidly frozen on dry ice.
Drug accumulation in the brain was examined following SC injection (FIG. 4C; 50 mg/kg).

KA induced SE = experiment: KA induced ongoing SE, EEG recording, treatment 2h after KA; type: in vivo, mice; conditions: treatment 2h after KA
Experimental: EEG recordings and analysis. WT C57Bl/6J adult male mice (12 weeks) were anesthetized with isofluorane and implanted with EEG/EMG electrodes and allowed to recover for 7 days prior to experimentation. […] 2h following KA administration mice were injected with a saturating concentration of diazepam (DZ) 10 mg/kg (IP) and recordings were extended for a further 60 min. […] LabChart 8 software was used for data analysis. Epileptiform activity was identified by changes in the amplitude of electrographic activity characterized by consistent changes in the power of the Fast Fourier transform (FFT) of the EEG and abnormal activity characterized by periods of rhythmic spiking lasting longer than 30s (Moore et al., 2017, supra; Silayeva et al., 2015, supra; Sivakumaran et al., J. Neurosci. 35, 8291-8296 (2015)).
To evaluate the potential of KCC2 activators to terminate ongoing SE, the KA model described above was employed. Mice were injected with KA (20 mg/Kg; IP). […] Spectral data were then subjected to FFT and the total EEG power between 1-100 Hz of the 2h following KA treatment (pre-drug) and 30 min following their injection (post-drug) were compared (FIG. 6B). In mice treated with DZ alone variable effects were observed, from large increases to modest reductions in EEG power, but these effects were not significant (FIG. 6C; pre=1.1±0.2×10^−6, post=4.4±7.4×10^−7 μV^2, p=0.214, n=13-14 mice). […] The latency of the treatments to modify EEG power was examined by measuring the time taken for this parameter to be reduced to 50% (FIG. 6E). […] Finally in mice treated with DZ alone 62% were insensitive to the effects of this agent on EEG power.

C[C@@H]1CN(c2nc3c(c(Nc4ccc(C5CCCCC5)cc4)n2)COC3)CCO1 [Compound A, (R)—N-(4-cyclohexylphenyl)-2-(2-methylmorpholino)-5,7-dihydrofuro[3,4-d]pyrimidin-4-amine]
activity of panel of 144 protein kinases [1]: did not modify the activity of this kinase panel | basal EGABA (hippocampal neurons): −59.3±2.1 mV | time of maximal concentration in brain ([2]; 50 mg/kg SC): 4 h | brain level 8h after SC injection ([2]; 50 mg/kg SC, 8h): a level that was maintained 8h later | maximal concentration in brain ([2]; 50 mg/kg SC, at 4 hr): > 600 nM | concentration at 2 hr ([2]; mouse, brain, intraperitoneal, 50 mg/kg IP, 2 hr): 2.67 ± 0.21 µM | concentration at 4 hr ([2]; mouse, brain, intraperitoneal, 50 mg/kg IP, 4 hr): 4.1 ± 0.13 µM | concentration at 30 min ([2]; mouse, brain, read-out: concentration in brain): 7.6 ± 4.4 µM | concentration at 30 min ([2]; mouse, plasma, read-out: concentration in plasma): 41.5 ± 11.5 µM | mice insensitive to DZ effects on EEG power (KA induced SE): abolished
